ChEMBL document CHEMBL5247670, “TMPRSS2 Inhibitor Discovery Facilitated through an In Silico and Biochemical Screening Platform” (ACS Med Chem Lett, 2023)
Activity calls are given as the source filed them. No cut-off for these calls is given here.

Experiments:
[1] = molecular target: Transmembrane protease serine 2 (Homo sapiens, UniProt O15393); assay: Inhibition of TMPRSS2 (106 to 492 residues) (unknown origin) using Boc-QAR-AMC as substrate measured for 20 mins by spectrophotometer analysis
[2] = tested on: SARS-CoV-2; assay: Antiviral activity against SARS-CoV-2 B.1.1.7 infected in human Caco-2 cells assessed as inhibition of viral infection preincubated for 1 hr followed by viral infection measured after 48 hrs by Hoechst 33342 staining based analysis; assay type: functional, organism-based; details: Severe acute respiratory syndrome coronavirus 2, time 49.0 hrs
[3] = tested on: SARS-CoV-2; assay: Antiviral activity against SARS-CoV-2 B.1.1.7 infected in human Calu-3 cells assessed as inhibition of viral infection preincubated for 1 hr followed by viral infection measured after 48 hrs by Hoechst 33342 staining based analysis; assay type: functional, organism-based; details: Severe acute respiratory syndrome coronavirus 2, B.1.1.7, Calu-3
[4] = tested on: Calu-3; assay: Cytotoxicity against human Calu-3 cells assessed as reduction in cell viability; assay type: functional
[5] = tested on: Calu-3; assay: Cytotoxicity against human Calu-3 cells assessed as reduction in cell viability upto 500 uM measured after 48 hrs by Hoechst 33342 staining based analysis; assay type: toxicity; details: calu-3, 48 h

Chain of Transmembrane protease serine 2 (O15393 1-255 limits assumed): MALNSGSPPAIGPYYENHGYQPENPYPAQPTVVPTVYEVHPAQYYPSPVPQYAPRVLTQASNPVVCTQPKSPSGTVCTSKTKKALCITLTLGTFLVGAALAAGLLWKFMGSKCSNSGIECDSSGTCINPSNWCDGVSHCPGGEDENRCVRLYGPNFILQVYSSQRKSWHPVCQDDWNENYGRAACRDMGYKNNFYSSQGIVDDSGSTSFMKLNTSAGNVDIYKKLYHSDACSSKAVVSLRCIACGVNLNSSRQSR
Chain of Transmembrane protease serine 2 (O15393 256-492 limits assumed): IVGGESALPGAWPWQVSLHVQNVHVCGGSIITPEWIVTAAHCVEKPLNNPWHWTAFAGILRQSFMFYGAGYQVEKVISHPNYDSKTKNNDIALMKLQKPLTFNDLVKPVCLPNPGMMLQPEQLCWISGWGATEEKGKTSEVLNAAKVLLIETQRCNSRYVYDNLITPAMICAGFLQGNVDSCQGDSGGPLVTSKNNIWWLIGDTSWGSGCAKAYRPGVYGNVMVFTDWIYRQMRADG

Compound	IC50 [1] [µM]	Activity [2]	IC50 [3] [µM]	CC50 [4] [µM]	Activity [5]
Cc1ccc(C(=O)Nc2ccc3c(c2)CCN(C(=N)N)C3)cc1	4				
N=C(N)N1CCc2cc(NC(=O)c3ccc4ccccc4c3)ccc2C1	4				
N=C(N)N1CCc2cc(NC(=O)c3cccc4ccccc34)ccc2C1	3.4				
N=C(N)N1CCc2ccccc2C1 [DEBRISOQUIN]	23	inactive	22	> 500	Non-Toxic
N=C(N)c1ccc(OCCCOc2ccc(C(=N)N)cc2)cc1 [PROPAMIDINE]				> 500	
